In US20230136717A1, “EPLIN AS A BIOMARKER FOR CANCER” (Turun yliopisto, priority 2020, published 2023):

Tests used:
HNSCC patient samples = assay: Cancer drug sensitivity testing on nonselected HNSCC patient samples (Misvik Oy); type: cell-based; conditions: for drug sensitivity: EPLIN positive HNSCC, more than 160 cancer drugs tested, all results not shown
From the text: Our proof-of-concept study featured testing the sensitivity of more than 160 cancer drugs on nonselected HNSCC patient samples using an internationally validated method (Misvik Oy, Turku, Finland).

HNSCC cell lines = assay: Sensitivity of HNSCC cell lines to EGFR-TKi after silencing EPLIN; type: cell-based; conditions: siRNA silencing of EPLIN; FIG. 6C

Row | Compound | drug sensitivity (HNSCC patient samples) | sensitivity of HNSCC cells to the drug on silencing EPLIN expression (HNSCC cell lines) | function as precision therapy (HNSCC patient samples; several EPLIN positive HNSCC patients, FIG. 7A) | effect relative to the other tested EGFR-TKis (HNSCC cell lines)
1 | COc1cc2ncnc(Nc3ccc(F)c(Cl)c3)c2cc1OCCCN1CCOCC1 [Gefitinib] | highest sensitivity | – | – | –
2 | CNC(=O)CN1CCC(Oc2cc3c(Nc4cccc(Cl)c4F)ncnc3cc2OC)CC1 [AZD8931] | – | decreases sensitivity | – | –
3 | C=CC(=O)Nc1cc2c(Nc3ccc(F)c(Cl)c3)ncnc2cc1OCCCN1CCOCC1 [Canertinib] | highest sensitivity | – | – | –
4 | C=CC(=O)Nc1cc(Nc2nccc(-c3cn(C)c4ccccc34)n2)c(OC)cc1N(C)CCN(C)C [AZD9291] | – | decreases sensitivity | – | –
5 | C#Cc1cccc(Nc2ncnc3cc(OCCOC)c(OCCOC)cc23)c1 [Erlotinib] | highest sensitivity | decreases sensitivity | proven to function as precision therapy | best result
6 | CCOc1cc2ncc(C#N)c(Nc3ccc(OCc4ccccn4)c(Cl)c3)c2cc1NC(=O)/C=C/CN(C)C [Neratinib] | – | decreases sensitivity | – | –
